Laboratory results from US10584159B2, “Renilla based biosensors for monitoring biomolecule localization and trafficking in cells” (The Royal Institution for the Advancement of …, priority 2014, dated 2020).
Starred links: 1 amine or outer side, 2 acyl side, 3 side chain; linkers in the order of their positions; H or OH if unused. Positions of bridges follow the written chain, without caps; N, C: chain ends. Non-standard residues stand in square brackets, D forms with d. Residues, ends and D or L forms follow the SMILES beside them. No end group written: not given here. *: point of attachment. Leu(3R-OH,Nα-propionyl) = CCC(=O)N[C@H](C(=O)*)[C@H](O)C(C)C; X1 = CC(C)[C@@H](O[*:3])[C@H](N[*:1])C(=O)[*:2]; NMeT = CN[C@H](C(=O)O)[C@@H](C)O; dPhLac = O=C(O)[C@H](O)Cc1ccccc1; NMeA = CN[C@@H](C)C(=O)O; NMeDha = C=C(NC)C(=O)O

How the values were obtained:
AT1R = target: T1, AT1R (Homo sapiens, UniProt P30556); assay: AT1R sorting to rab11 vesicles BRET (AT1R-RlucII/rGFP-rab11); type: cell-based; parameters: signal peptide-Flag-human AT1R (spFlag-AT1R); signal peptide (N); expressed in transfected cells; host or cells: HEK293SL (HEK293 for the screen)
T1 sequence (P30556 with tags, fused parts or gaps): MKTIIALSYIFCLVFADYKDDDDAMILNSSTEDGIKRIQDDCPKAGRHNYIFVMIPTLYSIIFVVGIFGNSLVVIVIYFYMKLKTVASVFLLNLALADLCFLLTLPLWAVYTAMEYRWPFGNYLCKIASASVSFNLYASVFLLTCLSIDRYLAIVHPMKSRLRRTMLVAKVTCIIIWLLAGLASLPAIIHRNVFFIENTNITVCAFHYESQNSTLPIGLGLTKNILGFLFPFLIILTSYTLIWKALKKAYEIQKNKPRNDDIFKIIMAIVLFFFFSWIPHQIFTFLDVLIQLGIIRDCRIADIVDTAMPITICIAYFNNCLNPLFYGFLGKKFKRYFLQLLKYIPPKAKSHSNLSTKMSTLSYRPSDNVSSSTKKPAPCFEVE
Protocol: BRET measurements for FIGS. 1B to 9D, 25D to 25F. The following day of transfection, cells were detached and replated onto poly-ornithine coated white 96-well plate at a density of 25,000 cells per well. The next day, cells were washed once with pre-warmed Tyrode's buffer (140 mM NaCl, 2.7 mM KCl, 1 mM CaCl2, 12 mM NaHCO3, 5.6 mM D-glucose, 0.5 mM MgCl2, 0.37 mM NaH2PO4, 25 mM HEPES, pH 7.4), and then stimulated with either various concentrations of ligands in Tyrode's buffer for the indicated time, or single concentration of ligands for various times at 37° C. For recycling experiment, after stimulating the cells with the ligands for 30 min at 37° C., they were washed either three times with ice-cold Tyrode's buffer or once with Tyrode's buffer/three times with acid (50 mM sodium citrate, pH 4.0)/two times with Tyrode's buffer. All the washing steps were performed on ice. Cells were then further incubated with Tyrode's buffer at 37° C. in a water bath for 45 min. […] Measurements were performed by using Synergy2 (BioTek®) microplate reader with a filter set of 410±80 nm and 515±30 nm for detecting the RlucII Renilla luciferase (donor) and GFP10 or rGFP (acceptor) light emissions, respectively. The BRET signal was determined by calculating the ratio of the light intensity emitted by the GFP10 or rGFP over the light intensity emitted by the RlucII. […]

Acetylcholine receptors = assay: PKN-based RhoA activation BRET assay, carbachol stimulation; type: cell-based; conditions: 100 nM Ubo, 100 μM carbachol 70 s
Protocol: PKN-based RhoA activation assay. For FIGS. 25B-D, HEK293SL cells were grown in DMEM supplemented with 6% fetal bovine serum (FBS) and 20 μg/ml gentamycin, at 37° C. Cells were seeded at a density of 7.5×10^5 cells per 100 mm dishes and were transiently transfected the next day with constructs encoding AT1R (3 μg) along with PKN-crib-RlucII (90 ng) and rGFP-CAAX (480 ng) using calcium phosphate method as described previously. After 24 h, cells were detached and seeded onto poly-ornithine-coated 96-well white plates at a density of 25 000 cells per well in media. The next day, cells were washed once with Tyrode's buffer and left in 80 μl of Tyrode's buffer at 37° C. When indicated, cells were treated with Ubo-Qic 100 nM for 30 min or C3 toxin for 3 μg/ml (in FIG. 25I), 4 hours at 37° C. Cell stimulation and BRET measurements were done at RT. BRET signals were monitored by addition of Coel-400a to a final concentration of 5 μM using a Synergy2 (BioTek®) microplate reader. Filter set was 410±80 nm and 515±30 nm for detecting the RlucII Renilla luciferase (donor) and rGFP (acceptor) light emission. […] BRET was measured at 37° C., using a Tristar Microplate Reader (Berthold Technologies) equipped with BRET400-GFP2/10 filter set (acceptor, 515±20 nm; and donor, 400±70 nm filters). […] BRET was measured at 37° C., using a Tristar Microplate Reader (Berthold Technologies).

Gq = assay: RlucII-tagged Gq translocation to rGFP markers (BRET) with TPαR; type: cell-based, human; conditions: 100 nM Ubo-Qic 20 min

DRVYVHPG [DVG, [Asp^1,Val^5, Gly^8]-AngII]
BRET signal relative to AngII (AT1R; 100 nM SI, 1 μM DVG): overall higher BRET signals

C=C1C(=O)N[C@@H](C)C(=O)N(C)[C@@H](C)C(=O)N[C@@H]([C@H](OC(=O)[C@@H](NC(=O)CC)[C@H](O)C(C)C)C(C)C)C(=O)N(C)[C@@H]([C@@H](C)OC)C(=O)O[C@H](C(C)C)[C@H](NC(C)=O)C(=O)O[C@H](Cc2ccccc2)C(=O)N1C [Ubo-QIC] (Ac-[X1][dPhLac][NMeDha]A[NMeA][X1](Leu(3R-OH,Nα-propionyl))[NMeT](Me); ester 1-C)
effect on AngII-bound AT1R in Rab11 vesicles (AT1R; 100 nM Ubo, 100 nM AngII 30 min): increased AngII-bound AT1R in Rab 4 and Rab11 vesicles | effect on CCh-mediated response (Rho sensor) (Acetylcholine receptors): completely blocked | U46619 response of Gq translocation to rGFP-CAAX Hras, rGFP-CAAX CCIL and Golgi markers after Gq inhibitor (Gq): No response is observed
